From patent US10266544B2, “Aryl substituted aminomethyl spectinomycin analogs as antibacterial agents” (ST. JUDE CHILDREN'S RESEARCH HOSPITAL, INC., priority 2013, dated 2019)
≈ marks a conversion by molar mass, not a printed value. Structures can show the parent of a compound that is named as a salt. Where two headings read alike, the source gives them in different places.

Tests used:
Type in all cases: cell-based
[1] = system: acinetobacter baumannii (ATCC 19606); test: MIC determination, microbroth dilution; settings: ATCC19606
[2] = system: Yersinia pestis; test: microbe, parasite or virus in culture; settings: read-out: MIC Y.p.
[3] = system: Moraxella catarrhalis; test: MIC determination (Table 6)
[4] = system: Klebsiella pneumoniae (ATCC 33495); test: MIC determination, microbroth dilution; settings: ATCC33495
[5] = system: E. coli K12 ΔtolC; test: microbe, parasite or virus in culture; settings: Escherichia coli, read-out: MIC E.c. Δtolc
[6] = system: Pseudomonas aeruginosa (PA01); test: MIC determination, microbroth dilution
[7] = system: Neisseria gonorrhoeae (ATCC 49226); test: Agar MIC determination (Alamar Blue); settings: ATCC49226, agar MIC, read-out: MIC N.g.
[8] = system: M. tuberculosis clinical isolates; test: microbe, parasite or virus in culture; settings: Mycobacterium tuberculosis
[9] = system: Streptococcus pneumoniae clinical isolates representing several serotypes; test: MIC determination, Streptococcus pneumoniae panel of clinical isolates (Table 7); settings: Streptococcus pneumoniae
[10] = system: Proteus vulgaris (ATCC 33420); test: MIC determination, microbroth dilution; settings: ATCC33420
[11] = system: MRSA, Staphylococcus aureus (NRS70); test: MIC determination, microbroth dilution; settings: Staphylococcus aureus (NRS70); read-out: MIC MRSA
[12] = system: Listeria monocytogenes; test: MIC determination (Table 6)
[13] = system: Bacillus subtilis (ATCC 23857); test: MIC determination, microbroth dilution; settings: ATCC23857; Bacillus subtilis (ATCC 23857); read-out: MIC B.s.
[14] = system: Legionella pneumophila (ATCC 33153); test: microbe, parasite or virus in culture; settings: ATCC33153, 72 h, read-out: Zone of inhibition L.p.
[15] = system: Streptococcus pneumoniae (R6); test: MIC determination, microbroth dilution
[16] = system: Streptococcus pyogenes (ATCC 700294); test: MIC determination, microbroth dilution; settings: ATCC700294; Streptococcus pyogenes (ATCC 700294); read-out: MIC S. py.
[17] = system: Neisseria gonorrhoeae (ATCC 49226); test: Disc diffusion assay; settings: ATCC49226, 4 μg per disc, read-out: Zone of inhibition N.g.
[18] = system: Enterococcus faecalis (ATCC 33186); test: MIC determination, microbroth dilution; settings: ATCC33186; Enterococcus faecalis (ATCC 33186); read-out: MIC E.f.
[19] = system: Escherichia coli (ATCC 700926); test: MIC determination, microbroth dilution; settings: ATCC700926; Escherichia coli (ATCC 700926); read-out: MIC E.c.
[20] = system: Neisseria meningitides (ATCC 13077); test: Disc diffusion assay; settings: ATCC13077, 4 μg per disc, read-out: Zone of inhibition N.m.
[21] = system: Proteus mirabilis (ATCC 25933); test: MIC determination, microbroth dilution; settings: ATCC25933
[22] = system: Bacillus anthracis; test: microbe, parasite or virus in culture; settings: read-out: MIC B.a.
[23] = system: Stenotrophomonas maltophilia (ATCC 13637); test: MIC determination, microbroth dilution; settings: ATCC13637; Stenotrophomonas maltophilia (ATCC 13637); read-out: MIC S.m.
[24] = system: Bacillus anthracis, Sterne 34F2; test: microbe, parasite or virus in culture; settings: STERNE34F2, read-out: MIC B.a.
[25] = system: Burkholderia cepacia (ATCC 25416); test: MIC determination, microbroth dilution
[26] = system: live vaccine strain (LVS) of Francisella tularensis; test: microbe, parasite or virus in culture; settings: Francisella tularensis, read-out: MIC F.t.
[27] = system: Haemophilus influenza (ATCC 49247); test: microbe, parasite or virus in culture
[28] = system: Staphylococcus aureus (ATCC 29213); test: MIC determination, microbroth dilution; settings: ATCC29213; Staphylococcus aureus (ATCC 29213); read-out: MIC S.a.
[29] = S. pneumoniae A66.1x, Drug Susceptible, read-out: MIC A66.1x
[30] = S. pneumoniae BHN97x, Drug Susceptible, read-out: MIC BHN97x
[31] = S. pneumoniae Daw7, PenG Resistant, read-out: MIC Daw7
[32] = S. pneumoniae Daw8, PenG Resistant, read-out: MIC Daw8
[33] = S. pneumoniae Daw62, PenG Resistant, read-out: MIC Daw62
[34] = S. pneumoniae Daw64, PenG Resistant, read-out: MIC Daw64

Which results are given for `CN[C@@H]1[C@H](O)[C@H](NC)[C@H]2O[C@@]3(O)C(=O)C[C@@H](C)O[C@H]3O[C@@H]2[C@H]1O` [SPC, (2R,4aR,5aR,6S,7S,8R,9S,9aR,10aS)-4a,7,9-trihydroxy-2-methyl-6,8-bis(methylamino)decahydro-4H-benzo[b]pyrano[2,3-e][1,4]dioxin-4-one, reference compound]?
MIC [1]: > 200 µg/mL; MIC [2]: 12.5 µg/mL (≈ 37.6 µM); MIC [3]: 3.1 to 6.3 µg/mL (≈ 9.33 to 19 µM); MIC [4]: > 200 µg/mL; MIC [5]: 3.1 to 12.5 µg/mL (≈ 9.33 to 37.6 µM); MIC [6]: 50 to 100 µg/mL (≈ 150 to 301 µM); MIC [7]: 50 µg/mL (≈ 150 µM); MIC ([8]; H37RV, read-out: MIC H37Rv): 100 µg/mL (≈ 301 µM); MIC ([8]; read-out: MIC TN022): 200 µg/mL (≈ 602 µM); MIC ([8]; read-out: MIC TN026): 200 µg/mL (≈ 602 µM); MIC ([9]; BAA1407, read-out: MIC BAA-1407): 12.5 µg/mL (≈ 37.6 µM); MIC ([9]; read-out: MIC D39X): 12.5 µg/mL (≈ 37.6 µM); MIC ([9]; read-out: MIC Daw9): 12.5 µg/mL (≈ 37.6 µM); MIC ([9]; read-out: MIC OVA6): 12.5 µg/mL (≈ 37.6 µM); MIC ([9]; read-out: MIC T4X): 12.5 µg/mL (≈ 37.6 µM); MIC [9, 29]: 6.3 µg/mL (≈ 19 µM); MIC [9, 30]: 6.3 µg/mL (≈ 19 µM); MIC [9, 31]: 25 µg/mL (≈ 75.2 µM); MIC [9, 32]: 25 µg/mL (≈ 75.2 µM); MIC [9, 33]: 25 µg/mL (≈ 75.2 µM); MIC [9, 34]: 25 µg/mL (≈ 75.2 µM); MIC [10]: 50 µg/mL (≈ 150 µM); MIC [11]: > 200 µg/mL; MIC [12]: 25 to 50 µg/mL (≈ 75.2 to 150 µM); MIC [13]: 25 µg/mL (≈ 75.2 µM); zone of inhibition at 4 µg/disc [14]: 0 mm; MIC ([15]; Streptococcus pneumoniae, read-out: MIC R6): 12.5 µg/mL (≈ 37.6 µM); MIC ([15]; Streptococcus pneumoniae, read-out: MIC S. pn.): 12.5 µg/mL (≈ 37.6 µM); MIC [16]: 25 µg/mL (≈ 75.2 µM); zone of inhibition at 4 µg/disc [17]: 11 to 13 mm; MIC [18]: 50 to 100 µg/mL (≈ 150 to 301 µM); MIC [19]: 25 to 50 µg/mL (≈ 75.2 to 150 µM); zone of inhibition at 4 µg/disc [20]: 13 to 14 mm; MIC [21]: > 200 µg/mL; MIC [22]: 25 µg/mL (≈ 75.2 µM); MIC [23]: 50 to 200 µg/mL (≈ 150 to 602 µM); MIC [24]: 25 µg/mL (≈ 75.2 µM); MIC ([25]; ATCC25416, Burkholderia cepacia (ATCC 25416), read-out: MIC B.c.): 50 to 100 µg/mL (≈ 150 to 301 µM); MIC B.c. ([25]; Burkholderia cepacia, Table 6): 50 to 100 µg/mL; MIC [26]: 12.5 to 25 µg/mL (≈ 37.6 to 75.2 µM); zone of inhibition at 4 µg/disc ([27]; Haemophilus, ATCC49247, read-out: Zone of inhibition H.i.): 11 to 13 mm

Which results are given for `CN[C@@H]1[C@H](O)[C@H](NC)[C@H]2O[C@]3(O)[C@H](O[C@@H]2[C@H]1O)O[C@H](C)C[C@@]3(O)CNCc1ccccc1` [compound 1, 3′-(R)-3′-(benzylaminomethyl)dihydrospectinomycin Trihydrochloride]?
MIC [1]: > 200 µg/mL; MIC [2]: 100 to 200 µg/mL; MIC [3]: 6.3 µg/mL; MIC [4]: > 200 µg/mL; MIC [5]: 25 µg/mL; MIC [6]: > 200 µg/mL; MIC [7]: 100 µg/mL; MIC ([8]; H37RV, read-out: MIC H37Rv): 25 µg/mL; MIC ([9]; BAA1407, S. pneumoniae BAA-1407, Macrolide Resistant, read-out: MIC BAA-1407): 12.5 µg/mL; MIC [9, 29]: 3.1 µg/mL; MIC [9, 30]: 3.1 µg/mL; MIC ([9]; S. pneumoniae D39X, Drug Susceptible, read-out: MIC D39X): 3.1 µg/mL; MIC [9, 31]: 6.3 µg/mL; MIC [9, 32]: 6.3 µg/mL; MIC ([9]; S. pneumoniae Daw9, PenG Resistant, read-out: MIC Daw9): 6.3 µg/mL; MIC [9, 33]: 6.3 µg/mL; MIC [9, 34]: 6.3 µg/mL; MIC ([9]; S. pneumoniae OVA6, Macrolide Resistant, read-out: MIC OVA6): 6.3 µg/mL; MIC ([9]; S. pneumoniae T4X, Drug Susceptible, read-out: MIC T4X): 6.3 µg/mL; MIC [10]: 200 µg/mL; MIC [11]: 50 to 100 µg/mL; MIC [12]: 25 µg/mL; MIC [28]: 50 µg/mL; MIC [13]: 3.1 µg/mL; zone of inhibition at 4 µg/disc [14]: 36 to 40 mm; MIC ([15]; Streptococcus pneumoniae (R6), read-out: MIC S. pn.): 6.3 to 12.5 µg/mL; MIC ([15]; Streptococcus pneumoniae, S. pneumoniae R6, Drug Susceptible, read-out: MIC R6): 6.3 µg/mL; MIC [16]: 3.1 to 6.3 µg/mL; zone of inhibition at 4 µg/disc [17]: 16 mm; MIC [18]: 25 µg/mL; MIC [19]: 100 µg/mL; zone of inhibition at 4 µg/disc [20]: 16 to 22 mm; MIC [21]: > 200 µg/mL; MIC [22]: 50 µg/mL; MIC [23]: 25 µg/mL; MIC [24]: 50 µg/mL; MIC ([25]; Burkholderia cepacia, ATCC25416, read-out: MIC B.c., Burkholderia cepacia (ATCC 25416)): ≥ 200 µg/mL; MIC ([25]; Burkholderia cepacia, ATCC25416, read-out: MIC B.c., Burkholderia cepacia, Table 6): ≥ 200 µg/mL; MIC [26]: 3.1 µg/mL; zone of inhibition at 4 µg/disc ([27]; ATCC49247, Haemophilus influenza, 4 μg per disc, range of at least two experiments, read-out: Zone of inhibition H.i.): 16 mm
